From PMC12867150, “A fungi-derived cyclic peptide enhances Th9-mediated antitumor immunity by targeting ZAP70 and SREBP1” (The Journal of Clinical Investigation, 2025)
“And” between values parts separate entries of the source, which are not always exact repeats. Equal entries are not always repeated.

Experiments:
phosphorylated ZAP70 = assay: Flow cytometry of phosphorylated ZAP70 in Th9 cells (Figure 5E); format: cell-based, mouse; details: 30 minutes after activation; result in words
Method: Details regarding staining panels (human and mouse), reagents (including clones and catalog numbers), acquisition settings, compensation/controls, and analysis procedures are provided in Supplemental Methods.
(§1) BioLegend, Cat. No. 422301 or Mouse TruStain FcX™, BioLegend, Cat. No. 101319) for 10 minutes at 4°C. For surface marker detection, cells were stained with fluorochrome-conjugated monoclonal antibodies in 96-well V-bottom plates and incubated on ice for 30 minutes. After staining, cells were washed twice and resuspended in FACS buffer for analysis.
(§2) Prior to intracellular cytokine staining, cells were restimulated for 4 hours with PMA (Absin, Cat. No. abs9107), ionomycin (Sigma-Aldrich, Cat. No. I0634), and brefeldin A (MedChemExpress, Cat. No. HY-16592). For intracellular cytokine staining, cells were first surface-stained as described above, then fixed and permeabilized using the BD Cytofix/Cytoperm™ kit (BD Biosciences, Cat. No. 554714) according to the manufacturer ’s protocol. Intracellular proteins were stained with directly conjugated antibodies targeting IL-9, IL-17a, IL-4, IFN-γ, TNF-α, FOXP3, p-ZAP70, Perforin, and […]
Antibodies used for mouse samples included those against IL-9 (PE, clone RM9A4, Biolegend, Cat. No. 514104), IFN-γ (PE, clone XMG1.2, Biolegend, Cat. No.
Cat. No. 103138), CD4 (APC/Cy7, clone E-AB-F1353UJ, Elabscience, Cat. No. […]

Th9 cells = assay: Th9 differentiation, dose response, IL-9+ cells by flow cytometry (Figure 1D); format: cell-based, mouse; design: IL-9+ Th9 differentiation: unit not given here; details: for IL-9+ Th9 differentiation: flow cytometry, individual replicates, n = 6
Method: IL-9 expression peaked at 10 μM, which was used for all subsequent experiments (Figure 1D).
Naive CD4^+ T cells were isolated from the spleens of C57BL/6J or CD45.1^+ OT-II mice using the MojoSort Mouse CD4 Naive T Cell Isolation Kit (BioLegend, catalog 480040), following the manufacturer’s protocol. Purified cells were cultured in RPMI-1640 medium supplemented with 10% FBS, 1% penicillin-streptomycin, and 0.1% β-mercaptoethanol (Gibco, catalog 21985023).
T cell polarization was initiated under plate-bound anti-CD3 (2 μg/mL, clone 17A2, BioXCell, catalog BE0002) and soluble anti-CD28 (1 μg/mL, clone 37.51, BioXCell, catalog BE0015-1) stimulation, with the addition of cytokines and neutralizing antibodies specific to each subset. For Th9 cells, these included IL-4 (10 ng/mL, Peprotech, catalog 400-04), TGF-β (1 ng/mL, EPOTO Biotech, catalog HF-2021), anti–IL-12 (5 μg/mL, clone C17.8, BioXCell, catalog BE0051), and anti–IFN-γ (10 μg/mL, clone XMG1.2, BioXCell, catalog BE0055); for Th1 cells, these included IL-12 (10 ng/mL, GenScript, catalog Z03211-50) and anti–IL-4 (5 μg/mL, clone 11B11, BioXCell, catalog BE0045); for Th2 cells, these included IL-4 (50 ng/mL), anti–IFN-γ (20 μg /mL), anti–IL-12 (5 μg/mL), Th17 cells: IL-6 (20 ng/mL, EPOTO Biotech, catalog MF-1006), TGF-β (1 ng/mL), IL-1β (10 ng/mL, Peprotech, catalog AF-211-11B), anti–IFN-γ (10 μg/mL), anti–IL-12 (5 μg/mL), and anti–IL-4 (5 μg/mL); and for Tregs, these included TGF-β (3 ng/mL). After 3 days of initial culture, cells were either collected for downstream assays or continued in extended culture with refreshed cytokines to maintain lineage commitment.
During the entire culture period, experimental groups were treated continuously with the indicated compound at the designated concentration, whereas control groups received an equal volume of DMSO.
as §1, §2

## anteiso-C15 Leu7 surfactin [EpA]
Phosphorylated ZAP70
  ZAP70 phosphorylation: significantly enhanced ZAP70 phosphorylation
Th9 cells; EpA 1 μM
  IL-9+ Th9 differentiation: 49.4 and 48.8 and 36.1 and 37.3 and 36.5 and 50.3
Th9 cells; EpA 10 μM
  IL-9+ Th9 differentiation: 82.5 and 80.4 and 79.9 and 77.4 (2×) and 76.3
Th9 cells; EpA 20 μM
  IL-9+ Th9 differentiation: 52.4 and 52.2 and 48.1 and 34.8 and 36 and 37.3
Th9 cells; increasing concentrations of EpA
  concentration at which IL-9 expression peaked: 10 µM
